Test results taken from paper PMC12314051, “Design, antiproliferative potency, and in silico studies of novel 5-methylfuran-3-yl)thio)-3-phenylquinazolin-4(3H)-one based derivatives as potential EGFR inhibitors” (Scientific Reports, 2025).
Like-named read-outs stand apart in the source and are kept apart here.

How the values were obtained:
[1] = test system: MCF-7 cells; experiment: MTT cytotoxicity assay, MCF-7; type: cell-based; settings: Homo sapiens
Experimental: (§1) Following the published protocol[75]–[77], the cytotoxic effects of the newly synthesized quinazolinones 1–10 were assessed in vitro using the MTT test method on human liver HepG-2, breast MCF-7, colorectal HCT-116 cancer cell lines, and normal diploid cell line WI-38. There were further details in the supplemetary file.
(§2) The cell lines were obtained from Karolinska Center, Department of Oncology and Pathology, Karolinska Institute and Hospital, Stockholm, Sweden, as follows: human liver HepG-2, breast MCF-7, and colorectal HCT-116 cancer cell lines and human diploid cell line WI-38. Exponentially, cells were placed in 10^4 cells/ well for 24 h, and then fresh medium containing different concentrations of the tested sample. two-fold serial dilution of the tested sample was added using a multichannel pipette. Moreover, all cells were cultivated at 37 °C, 5% CO2 and 95% humidity. Also, incubation of control cells occurred at 37 °C. However, after incubation for 24 h different concentrations of the sample (100, 50, 25, 12.5, 6.25, 3.125, and 1.56 µM) were added, and continued the incubation for 48 h, then, add the crystal violet solution of 1% to each well for 0.5 h to examine viable cells. Rinse the wells using water until no stain. After that, add 30% glacial acetic acid to all wells with shaking plates on a Microplate reader (TECAN, Inc.) to measure the absorbance, using a test wavelength of 490 nm. Besides, compare the treated samples with the control cell. The cytotoxicity was estimated by IC50 in (μM), the concentration that inhibits 50% of growth of cancer cell.

[2] = test system: HepG-2 cells; experiment: MTT cytotoxicity assay, HepG-2; type: cell-based; settings: Homo sapiens
Experimental: as §1, §2

[3] = test system: HepG-2, HCT-116 and MCF-7 cell lines; experiment: MTT cytotoxicity, all screened cancer cell lines together (SAR summary); type: cell-based, human
Experimental: […]. In addition, replacement of acetyl group in 2 with pyrazoline moiety with free N-1 in 7 or bound to thiazole in 9, yielded weak activity.
as §1, §2

[4] = test system: WI-38 cells; experiment: MTT cytotoxicity assay, normal WI-38; type: cell-based; settings: Homo sapiens
Experimental: . […]. Furthermore, the MTT assay was employed to examine the safety profiles of the cytotoxic activity against the normal human diploid cell line WI-38 (Table 1). […]. They could therefore be considered safe chemotherapeutic agents.
as §1, §2

[5] = test system: HCT-116 cells; experiment: MTT cytotoxicity assay, HCT-116; type: cell-based; settings: Homo sapiens
Experimental: as §1, §2

[6] = molecular target: T1, EGFR (Homo sapiens, UniProt P00533); experiment: In vitro EGFR inhibition assay; type: biochemical; settings: for IC50: EGFR, read-out: IC50 (mean ± SD)
T1 construct: purchased Abcam
T1 sequence (P00533 25-1210): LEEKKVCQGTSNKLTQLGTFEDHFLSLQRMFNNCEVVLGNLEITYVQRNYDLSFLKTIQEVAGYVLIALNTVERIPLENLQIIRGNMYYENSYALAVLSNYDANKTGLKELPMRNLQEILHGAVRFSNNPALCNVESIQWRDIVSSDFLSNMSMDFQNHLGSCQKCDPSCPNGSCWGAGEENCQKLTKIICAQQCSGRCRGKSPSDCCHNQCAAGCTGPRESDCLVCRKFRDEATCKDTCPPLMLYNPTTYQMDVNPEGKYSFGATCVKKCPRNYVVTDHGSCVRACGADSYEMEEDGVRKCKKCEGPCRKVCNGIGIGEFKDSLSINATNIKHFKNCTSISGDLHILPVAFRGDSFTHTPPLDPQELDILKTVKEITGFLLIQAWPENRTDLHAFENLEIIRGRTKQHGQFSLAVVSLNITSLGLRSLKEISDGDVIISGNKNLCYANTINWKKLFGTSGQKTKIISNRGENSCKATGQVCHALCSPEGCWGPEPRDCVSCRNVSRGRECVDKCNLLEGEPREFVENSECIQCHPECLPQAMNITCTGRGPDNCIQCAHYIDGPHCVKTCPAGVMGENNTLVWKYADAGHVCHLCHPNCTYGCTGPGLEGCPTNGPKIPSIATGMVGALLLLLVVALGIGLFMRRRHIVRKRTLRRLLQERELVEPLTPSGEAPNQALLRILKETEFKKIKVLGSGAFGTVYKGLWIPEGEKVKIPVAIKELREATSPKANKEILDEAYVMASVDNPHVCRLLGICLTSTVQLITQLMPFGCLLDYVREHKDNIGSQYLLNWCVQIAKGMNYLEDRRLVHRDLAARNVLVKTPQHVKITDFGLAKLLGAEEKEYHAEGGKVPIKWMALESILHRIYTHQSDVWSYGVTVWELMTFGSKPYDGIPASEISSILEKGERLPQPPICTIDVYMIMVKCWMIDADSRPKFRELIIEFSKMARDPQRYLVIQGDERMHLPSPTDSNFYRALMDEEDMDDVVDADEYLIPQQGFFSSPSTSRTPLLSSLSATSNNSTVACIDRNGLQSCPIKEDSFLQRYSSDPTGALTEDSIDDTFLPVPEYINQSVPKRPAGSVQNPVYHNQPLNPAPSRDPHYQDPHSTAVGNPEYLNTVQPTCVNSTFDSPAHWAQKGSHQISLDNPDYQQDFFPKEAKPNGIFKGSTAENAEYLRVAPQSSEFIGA

[7] = molecular target: T2, VEGFR-2 (Homo sapiens, UniProt P35968); experiment: In vitro VEGFR-2 inhibition assay (ELISA kit); type: biochemical; settings: read-out: IC50 (mean ± SD)
T2 construct: purchased Ray Biotech
T2 sequence (P35968 20-1356): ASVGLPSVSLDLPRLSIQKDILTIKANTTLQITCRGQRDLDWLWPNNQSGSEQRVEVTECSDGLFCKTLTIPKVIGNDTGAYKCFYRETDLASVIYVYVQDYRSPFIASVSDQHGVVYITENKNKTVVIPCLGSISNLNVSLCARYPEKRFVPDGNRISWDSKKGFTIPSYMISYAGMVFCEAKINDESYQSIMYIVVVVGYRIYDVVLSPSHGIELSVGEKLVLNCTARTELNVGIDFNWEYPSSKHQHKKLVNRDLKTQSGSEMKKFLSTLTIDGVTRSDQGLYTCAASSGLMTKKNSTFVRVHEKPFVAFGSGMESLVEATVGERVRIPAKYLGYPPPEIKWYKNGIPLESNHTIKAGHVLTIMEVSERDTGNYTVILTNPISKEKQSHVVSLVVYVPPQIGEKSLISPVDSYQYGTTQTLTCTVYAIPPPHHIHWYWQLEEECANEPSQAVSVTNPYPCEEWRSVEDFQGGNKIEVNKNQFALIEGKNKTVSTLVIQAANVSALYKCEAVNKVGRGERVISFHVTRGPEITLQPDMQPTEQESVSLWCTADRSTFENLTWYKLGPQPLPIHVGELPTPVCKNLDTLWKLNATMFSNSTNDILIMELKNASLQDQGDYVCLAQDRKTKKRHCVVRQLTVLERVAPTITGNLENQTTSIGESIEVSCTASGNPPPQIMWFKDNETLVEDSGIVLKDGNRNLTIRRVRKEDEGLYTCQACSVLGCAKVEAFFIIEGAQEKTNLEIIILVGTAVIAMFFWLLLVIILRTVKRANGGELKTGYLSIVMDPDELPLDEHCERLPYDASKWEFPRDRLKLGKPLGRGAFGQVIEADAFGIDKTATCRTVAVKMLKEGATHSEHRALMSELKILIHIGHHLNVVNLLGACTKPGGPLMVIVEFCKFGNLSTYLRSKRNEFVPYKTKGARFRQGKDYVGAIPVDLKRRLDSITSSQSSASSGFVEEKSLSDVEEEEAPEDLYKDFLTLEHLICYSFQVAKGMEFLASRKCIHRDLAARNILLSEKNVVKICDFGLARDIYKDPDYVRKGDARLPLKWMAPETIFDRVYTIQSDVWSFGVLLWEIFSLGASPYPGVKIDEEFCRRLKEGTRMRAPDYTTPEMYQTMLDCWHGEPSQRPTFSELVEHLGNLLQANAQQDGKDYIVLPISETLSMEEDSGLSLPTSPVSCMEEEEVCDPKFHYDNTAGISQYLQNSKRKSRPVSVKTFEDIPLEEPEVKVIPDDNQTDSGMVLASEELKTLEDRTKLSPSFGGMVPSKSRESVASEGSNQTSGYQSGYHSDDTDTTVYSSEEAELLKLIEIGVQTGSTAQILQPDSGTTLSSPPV
Experimental: Quinazolinone-based targets 1, 6b, 8a, and 10 were chosen for further evaluation of their in vitro inhibitory activity against EGFR and VEGFR-2 because of their exceptional cytotoxic outcomes, with the goal of clarifying their mode of action. […]. VEGFR-2 assay: the effect of the most promising cytotoxic compounds 1, 6b, 8a, and 10 was evaluated for their in vitro inhibitory activity against Human VEGFR-2 using ELISA kit according to manufacturer's instructions (Ray Biotech). This assay employs an antibody specific for human VEGFR-2 coated on a 96-well plate. Samples and standards were added to the wells and incubated over night at 4 °C with gentle shaking. The wells were washed and biotinylated antibody was added followed by incubation for one hour at room temperature. After washing away unbound biotinylated antibody, HRP conjugated streptavidin was pipetted to the wells and
incubated at room temperature for 45 min. The wells were then washed; TMB substrate solution was added and incubated for 30 min. The color developed was in proportion to the amount of VEGFR-2 bound. The Stop Solution was added and the intensity of the color was measured at 450 nm. Percent inhibition was calculated by the comparison of compounds treated to control incubations. […]

[8] = MCF7, MCF-7, MTT assay, read-out: IC50 (mean ± SD)
[9] = HepG2, HepG-2, MTT assay, read-out: IC50 (mean ± SD)
[10] = HepG-2, HCT-116 and MCF-7 cell lines
[11] = normal WI-38, MTT assay, read-out: IC50 (mean ± SD)
[12] = HCT-116, MTT assay, read-out: IC50 (mean ± SD)

| SMILES | IC50 [1, 8] [µM] | IC50 [2, 9] [µM] | cytotoxic activity in words (SAR study) [3, 10] | IC50 [4, 11] [µM] | IC50 [5, 12] [µM] | selectivity EGFR over VEGFR-2 ([6]; EGFR versus VEGFR-2) | IC50 [6] [µM] | IC50 [7] [µM] | IC50 ([1]; MCF7, read-out: IC50 (mean ± SD)) [µM] | IC50 ([2]; HepG2, read-out: IC50 (mean ± SD)) [µM] | IC50 ([4]; WI-38, read-out: IC50 (mean ± SD)) [µM] | IC50 ([5]; HCT-116, read-out: IC50 (mean ± SD)) [µM] | cytotoxic activity in words (SAR study) [3] |
| --- | --- | --- | --- | --- | --- | --- | --- | --- | --- | --- | --- | --- | --- |
| Cc1occ(Sc2nc3ccccc3c(=O)n2-c2ccccc2)c1C1=NN(C(N)=S)C(c2ccc(F)cc2)C1 (stereo not shown) [Compound 8b] | 76.1 ± 3.9 | 81.5 ± 4.2 | Weak activity | 26.9 ± 1.8 | 93.4 ± 4.7 |  |  |  |  |  |  |  |  |
| Cc1occ(Sc2nc3ccccc3c(=O)n2-c2ccccc2)c1C1=NN(C(=S)N=Cc2ccc(C=O)s2)C(c2ccc(F)cc2)C1 (stereo not shown) [Compound 10, 5-(4-Fluorophenyl)-N-[(5-formylthiophen-2-yl)methylene]-3-(2-methyl-4-{[4-oxo-3-phenyl-3,4-dihydroquinazolin-2-yl)thio]furan-3-yl}-4,5-dihydro-1H-pyrazole-1-carbothioamide] | 6.49 ± 0.4 | 8.71 ± 0.7 | Excellent activity | 35.2 ± 2.2 | 11.6 ± 0.9 | substantially more selective for EGFR than VEGFR-2 | 0.51 ± 0.04 | 39.4 ± 1.35 |  |  |  |  |  |
| C#Cc1cccc(Nc2ncnc3cc(OCCOC)c(OCCOC)cc23)c1 [Erlotinib, reference compound] |  |  |  |  |  |  |  |  | 4.17 ± 0.2 | 4.5 ± 0.2 | 6.72 ± 0.5 | 5.23 ± 0.3 |  |
| Cc1occ(Sc2nc3ccccc3c(=O)n2-c2ccccc2)c1C(=O)C=Cc1ccco1 [Compound 3d, 2-{{{4-[3-(Furan-2-yl)acryloyl]-5-methylfuran-3-yl}thio}}-3-phenylquinazolin-4(3H)-one] | 16 ± 1.3 | 18.9 ± 1.4 |  | > 100 | 25.9 ± 1.7 |  |  |  |  |  |  |  |  |
| Cc1occ(Sc2nc3ccccc3c(=O)n2-c2ccccc2)c1C1=NN(C(N)=S)C(c2ccc(Cl)cc2)C1 (stereo not shown) [Compound 8a, 5-(4-Chlorophenyl)-3-{2-methyl-4-[(4-oxo-3-phenyl-3,4-dihydroquinazolin-2-yl)thio]furan-3-yl}-4,5-dihydro-1H-pyrazole-1-carbothioamide] | 8.29 ± 0.6 | 9.68 ± 0.8 | Excellent activity | 63.2 ± 3.3 | 57.1 ± 3.3 |  | 8.53 ± 0.25 | 46.2 ± 1.2 |  |  |  |  |  |
| Cc1occ(Sc2nc3ccccc3c(=O)n2-c2ccccc2)c1C1CC(c2ccc(F)cc2)Nc2ccccc2N1 (stereo not shown) [Compound 6a, 2-{{{4-[4-(4-Fluorophenyl)-2,3,4,5-tetrahydro-1H-benzo[b][1,4]diazepin-2-yl]-5-methylfuran-3-yl}thio}}-3-phenylquinazolin-4(3H)-one] | 33.6 ± 2 | 35.8 ± 2.1 | Weak activity | 85.1 ± 4.2 | 52.5 ± 3.1 |  |  |  |  |  |  |  |  |
| O=C(CCl)Sc1nc2ccccc2c(=O)n1-c1ccccc1 [Compound 1, S-(4-Oxo-3-phenyl-3,4-dihydroquinazolin-2-yl) 2-chloroethanethioate] | 10.6 ± 0.9 | 13.2 ± 1.1 |  | 75.4 ± 3.8 | 19.6 ± 1.4 |  | 25.5 ± 1.2 | 70.2 ± 2.55 |  |  |  |  | Moderate activity |
| COc1ccc(-c2cc(-c3c(Sc4nc5ccccc5c(=O)n4-c4ccccc4)coc3C)ncc2C#N)cc1 [Compound 5, 4-(4-Methoxyphenyl)-6-{2-methyl-4-[(4-oxo-3-phenyl-3,4-dihydroquinazolin-2-yl)thio]furan-3-yl}nicotinonitrile] | 50 ± 2.8 | 38.5 ± 2.3 | Weak activity | 17.8 ± 1.4 | 66.3 ± 3.5 |  |  |  |  |  |  |  |  |
| Cc1occ(Sc2nc3ccccc3c(=O)n2-c2ccccc2)c1C(=O)C=Cc1ccc(Cl)cc1 [Compound 3a, 2-{{{4-[3-(4-Chlorophenyl)acryloyl]-5-methylfuran-3-yl}thio}}-3-phenylquinazolin-4(3H)-one] | 37.9 ± 2.2 | 21.8 ± 1.6 |  | 68.7 ± 3.6 | 34.1 ± 2.1 |  |  |  |  |  |  |  |  |
| CCOC(=O)C1C(=O)C=C(c2c(Sc3nc4ccccc4c(=O)n3-c3ccccc3)coc2C)CC1c1ccc(F)cc1 (stereo not shown) [Compound 4, Ethyl 4′-fluoro-5-{2-methyl-4-[(4-oxo-3-phenyl-3,4-dihydroquinazolin-2-yl)thio]furan-3-yl}-3-oxo-1,2,3,6-tetrahydro-[1,1′-biphenyl]-2-carboxylate] | 62.1 ± 3.5 | 64.9 ± 3.5 | Weak activity | 44.9 ± 2.7 | 87.8 ± 4.3 |  |  |  |  |  |  |  |  |
| COc1ccc(C=CC(=O)c2c(Sc3nc4ccccc4c(=O)n3-c3ccccc3)coc2C)cc1 [Compound 3c, 2-{{{4-[3-(4-Methoxyphenyl)acryloyl]-5-methylfuran-3-yl}thio}}-3-phenylquinazolin-4(3H)-one] | 23.4 ± 1.6 |  |  | 53.2 ± 2.9 | > 100 |  |  |  |  |  |  |  |  |
| Cc1occ(Sc2nc3ccccc3c(=O)n2-c2ccccc2)c1C1=NNC(c2ccc(Cl)cc2)C1 (stereo not shown) [Compound 7, 2-{{{4-[5-(4-Chlorophenyl)-4,5-dihydro-1H-pyrazol-3-yl]-5-methylfuran-3-yl}thio}}-3-phenylquinazolin-4(3H)-one] | 45.8 ± 2.5 | 27.9 ± 1.9 | weak activity | > 100 | 48.9 ± 2.6 |  |  |  |  |  |  |  |  |
| CC(=O)c1c(Sc2nc3ccccc3c(=O)n2-c2ccccc2)coc1C [Compound 2, 2-[(4-Acetyl-5-methylfuran-3-yl)thio]-3-phenylquinazolin-4(3H)-one] | 54.9 ± 3.2 | 47.8 ± 2.8 |  | 36.9 ± 2.4 | 78.7 ± 3.7 |  |  |  |  |  |  |  | Weak activity |
| Cc1occ(Sc2nc3ccccc3c(=O)n2-c2ccccc2)c1C(=O)C=Cc1ccc(F)cc1 [Compound 3b, 2-{{{4-[3-(4-Fluorophenyl)acryloyl]-5-methylfuran-3-yl}thio}}-3-phenylquinazolin-4(3H)-one] | 71.1 ± 3.8 | 56 ± 3.2 |  | 28.8 ± 1.9 | 83.3 ± 4.1 |  |  |  |  |  |  |  |  |
| Cc1occ(Sc2nc3ccccc3c(=O)n2-c2ccccc2)c1C1=NN(c2nc(Cl)cs2)C(c2ccc(Cl)cc2)C1 (stereo not shown) [Compound 9, 2-{{{4-[5-(4-Chlorophenyl)-1-(4-chlorothiazol-2-yl)-4,5-dihydro-1H-pyrazol-3-yl]-5-methylfuran-3-yl}thio}}-3-phenylquinazolin-4(3H)-one] | 58 ± 3.4 | 44 ± 2.5 | weak activity | 39.8 ± 2.4 | 74.7 ± 3.9 |  |  |  |  |  |  |  |  |
